Experiments:
[1] = system: A. niger; assay: agar diffusion-disk technique, halo formation (fungal strains); assay type: cell-based, Aspergillus niger; conditions: for re-growth around the formulation: A. niger, 96 hours after inhibition; for activity against A. niger: formulation at 0.5%, after 7 days
Method: This technique is explained in R. K. Dart, Microbiology for the Analytic Chemist, The Royal Society of Chemists, 1996, which is incorporated herein by reference. […] Anti-bacterial activity was detected by showing a distinguished halo around the disk previously wetted with the formulation. Halo formation was measured with a caliper and biological activity was considered according to size. Details of specific applications and formulations are set forth below. […] SDS indicates Sodium Dodecyl Sulfate. […] Details of specific applications and formulations are set forth below.

[2] = system: A. niger; assay: culture of the fungi A. niger exposed to disk moistened with formulation (glycerol/SDS base); assay type: cell-based, Aspergillus niger; conditions: under more controlled conditions; 0.5 and 1% formulations
Method: Formulations were further tested against a culture of the fungi A. niger. The fungi was exposed to 1% PCO/1% POH, 1% PCO, and 1% POH formulations. All formulations were prepared in a glycerol/SDS base in water.

[3] = system: bacteria, yeast or fungi; assay: general statements on activity against bacteria, yeast or fungi; assay type: cell-based; conditions: enhancer alone

In the case of `C=C(C)C1CC=C(C=O)CC1` (stereo not drawn) [PCO, perillyl aldehyde], the “re-growth around the formulation” value [1] is reported as “no growth”, the “activity against A. niger” value [1] is reported as “very active” and the “inhibition of growth of A. niger” value [2] is reported as “did inhibit growth”.

In the case of `C=C(C)[C@@H]1CC=C(CO)CC1` [POH, perillyl alcohol, reference compound], the “re-growth around the formulation” value [1] is reported as “re-growth”, the “activity against A. niger” value [1] is reported as “considerable growth” and the “inhibition of growth of A. niger” value [2] is reported as “did not perform as aggressively”.

For `CCCCCCCCCCCCOS(=O)(=O)[O-].[Na+]` [SDS, Sodium Dodecyl Sulfate], the “activity against bacterial cells” value [3] was “do not provide activity”.

With `CC(O)CO` (stereo not drawn) [propylene glycol] the “activity against bacterial cells” value [3] was “do not provide activity” and the “effect against bacteria, yeast or fungi” value [3] was “no effect”.

Reference: patent publication US20060229368A1, “MEDICAL APPLICATION OF OXIDIZED MONOTERPENES” (priority 2001, published 2006)
